IC50 data for 19 compounds are collected here from patent publication US9670227B2, “Thienopyrimidine derivatives, a process for their preparation and pharmaceutical compositions containing them” (LES LABORATOIRES SERVIER, priority 2013, dated 2017).

For assay [1], the system named is H929 multiple myeloma tumour line. The assay is described as follows: In vitro cytotoxicity, Microculture Tetrazolium Assay. It is filed as cell-based. The note with it: Homo sapiens, NCI-H929, 48 h, H929 cells, 48 hours exposure, MTT; read-out: IC50 (μM) MTT H929. The protocol:
The cytotoxicity studies were carried out on the H929 multiple myeloma tumour line.
The cells are distributed onto microplates and exposed to the test compounds for 48 hours.

In assay [2] the target is Mcl-1 protein (UniProtKB primary accession number: Q07820) (Homo sapiens, UniProt Q07820). The assay is described as follows: Inhibition of Mcl-1 by fluorescence polarisation, Method 1. It is filed as binding. As to conditions: fluorescence polarisation; Method 1, or Method 2; read-out: IC50 (M) Mcl-1 FP. Summed up:
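FP readout of relative binding potency. Mcl-1 5 nM final, fluorescein-labelled ligand 1 nM final; buffer 10 mM HEPES, 150 mM NaCl, 0.05% Tween 20, pH 7.4; 11-pt dilution series, 5% DMSO final.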
For orientation: Fluorescence polarisation rises when a labelled molecule tumbles more slowly, as on binding a larger partner.

For orientation: IC50 means the concentration needed to halve the response being measured.

Chain of Mcl-1 protein (Q07820 whole entry): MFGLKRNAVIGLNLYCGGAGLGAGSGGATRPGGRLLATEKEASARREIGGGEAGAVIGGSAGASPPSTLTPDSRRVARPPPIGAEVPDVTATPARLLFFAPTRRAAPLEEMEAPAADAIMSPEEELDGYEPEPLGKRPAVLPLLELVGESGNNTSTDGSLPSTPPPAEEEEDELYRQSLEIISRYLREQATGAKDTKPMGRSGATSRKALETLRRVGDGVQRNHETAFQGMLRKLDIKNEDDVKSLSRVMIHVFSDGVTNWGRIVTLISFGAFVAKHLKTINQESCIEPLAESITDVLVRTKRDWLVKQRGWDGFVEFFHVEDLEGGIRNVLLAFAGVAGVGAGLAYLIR

With `COc1ccccc1CC(Oc1ncnc2sc(-c3ccc(F)cc3)c(-c3ccc(OCCN4CCN(C)CC4)c(Cl)c3C)c12)C(=O)OCc1oc(=O)oc1C` [Example 644, (5-methyl-2-oxo-1,3-dioxol-4-yl)methyl (2R)-2-{[(5Sa)-5-{3-chloro-2-methyl-4-[2-(4-methylpiperazin-1-yl)ethoxy]phenyl}-6-(4-fluorophenyl)thieno[2,3-d]pyrimidin-4-yl]oxy}-3-(2-methoxyphenyl)propanoate], the half-maximal inhibitory concentration (IC50) was 0.248 µM in assay [1] and 3.7e-07 M in assay [2].

As for `COc1ccccc1CC(Oc1ncnc2sc(-c3ccc(F)cc3)c(-c3ccc(OCCN4CCN(C)CC4)c(Br)c3C)c12)C(=O)O` [Example 646, (2R)-2-{[(5Sa)-5-{3-bromo-2-methyl-4-[2-(4-methylpiperazin-1-yl)ethoxy]phenyl}-6-(4-fluorophenyl)thieno[2,3-d]pyrimidin-4-yl]oxy}-3-(2-methoxyphenyl)propanoic acid], the values for the IC50 in assay [1] and in assay [2] were 0.298 µM and 2.1e-08 M, respectively.

With `COc1ccccc1CC(Oc1ncnc2sc(-c3ccc(F)cc3)c(-c3ccc(OCCN4CCN(C)CC4)c(Cl)c3Cl)c12)C(=O)O` [Example 647, (2R)-2-{[(5Sa)-5-{2,3-dichloro-4-[2-(4-methylpiperazin-1-yl)ethoxy]phenyl}-6-(4-fluorophenyl)thieno[2,3-d]pyrimidin-4-yl]oxy}-3-(2-methoxyphenyl)propanoic acid], the results for the IC50 in assay [1] and in assay [2] were 0.498 µM and 2.3e-08 M, respectively.

On to `Cc1c(-c2c(-c3ccc(F)cc3)sc3ncnc(OC(Cc4ccccc4OCC4CCCO4)C(=O)O)c23)ccc(OCC2CCN(C)C2)c1Cl` [Example 649, (2R)-2-{[(5Sa)-5-{3-chloro-2-methyl-4-[(1-methylpyrrolidin-3-yl)methoxy]phenyl}-6-(4-fluorophenyl)thieno[2,3-d]pyrimidin-4-yl]oxy}-3-{2-[(2R)-tetrahydrofuran-2-ylmethoxy]phenyl}propanoic acid], for which the IC50 in assay [1] stood at 0.341 µM; in assay [2] it was 2.3e-08 M.

For the compound `COc1nccc(COc2ccccc2CC(Oc2ncnc3sc(-c4ccc(F)cc4)c(-c4cnc(OCCN5CCN(C)CC5)c(Cl)c4C)c23)C(=O)O)n1` [Example 651, (2R)-2-{[(5Ra)-5-{5-chloro-4-methyl-6-[2-(4-methylpiperazin-1-yl)ethoxy]pyridin-3-yl}-6-(4-fluorophenyl)thieno[2,3-d]pyrimidin-4-yl]oxy}-3-{2-[(2-methoxypyrimidin-4-yl)methoxy]phenyl}propanoic acid], the values for the IC50 in assay [1] and in assay [2] were 0.282 µM and 6.8e-09 M, respectively.

`CCn1nccc1COc1ccccc1CC(Oc1ncnc2sc(-c3ccc(F)cc3)c(-c3cnc(OCCN4CCN(C)CC4)c(Cl)c3C)c12)C(=O)O` [Example 652, (2R)-2-{[(5Ra)-5-{5-chloro-4-methyl-6-[2-(4-methylpiperazin-1-yl)ethoxy]pyridin-3-yl}-6-(4-fluorophenyl)thieno[2,3-d]pyrimidin-4-yl]oxy}-3-{2-[(1-ethyl-1H-pyrazol-5-yl)methoxy]phenyl}propanoic acid]: the IC50 in assay [1] came to 0.059 µM; in assay [2], 4.7e-09 M.

Turning to `COCC#Cc1ccccc1CC(Oc1ncnc2sc(-c3ccc(F)cc3)c(-c3ccc(OCCN4CCN(C)CC4)c(Cl)c3C)c12)C(=O)O` [Example 656, (2R)-2-{[(5Sa)-5-{3-chloro-2-methyl-4-[2-(4-methylpiperazin-1-yl)ethoxy]phenyl}-6-(4-fluorophenyl)thieno[2,3-d]pyrimidin-4-yl]oxy}-3-[2-(3-methoxyprop-1-yn-1-yl)phenyl]propanoic acid], the IC50 in assay [1] turned out to be 0.523 µM; in assay [2], 6.1e-08 M.

Consider `Cc1c(-c2c(-c3ccco3)sc3ncnc(OC(Cc4ccccc4OCc4ccnn4C)C(=O)O)c23)ccc(OCCN(C)C)c1Cl` [Example 668, (2R)-2-{[(5Sa)-5-{3-chloro-4-[2-(dimethylamino)ethoxy]-2-methylphenyl}-6-(furan-2-yl)thieno[2,3-d]pyrimidin-4-yl]oxy}-3-{2-[(1-methyl-1H-pyrazol-5-yl)methoxy]phenyl}propanoic acid], for which the values for the IC50 in assay [1] and in assay [2] were 0.13 µM and 1.1e-08 M, respectively.

Turning to `CCN1CCN(CCOc2ccc(-c3c(-c4ccco4)sc4ncnc(OC(Cc5ccccc5OCCOC)C(=O)O)c34)c(C)c2Cl)CC1` [Example 669, (2R)-2-{[(5Sa)-5-{3-chloro-4-[2-(4-ethylpiperazin-1-yl)ethoxy]-2-methylphenyl}-6-(furan-2-yl)thieno[2,3-d]pyrimidin-4-yl]oxy}-3-[2-(2-methoxyethoxy)phenyl]propanoic acid], the values for the IC50 in assay [1] and in assay [2] were 0.108 µM and 4.9e-09 M, respectively.

For `CCN1CCN(CCOc2ccc(-c3c(-c4ccco4)sc4ncnc(OC(Cc5ccccc5OCc5ccnc(OC)n5)C(=O)O)c34)c(C)c2Cl)CC1` [Example 670, (2R)-2-{[(5Sa)-5-{3-chloro-4-[2-(4-ethylpiperazin-1-yl)ethoxy]-2-methylphenyl}-6-(furan-2-yl)thieno[2,3-d]pyrimidin-4-yl]oxy}-3-{2-[(2-methoxypyrimidin-4-yl)methoxy]phenyl}propanoic acid], the IC50 was determined as 0.027 µM in assay [1] and 3.2e-09 M in assay [2].

As for `COCCOc1ccccc1CC(Oc1ncnc2sc(-c3ccco3)c(-c3ccc(OCCN4CCN(C(C)C)CC4)c(Cl)c3C)c12)C(=O)O` [Example 671, (2R)-2-{[(5Sa)-5-(3-chloro-2-methyl-4-{2-[4-(propan-2-yl)piperazin-1-yl]ethoxy}phenyl)-6-(furan-2-yl)thieno[2,3-d]pyrimidin-4-yl]oxy}-3-[2-(2-methoxyethoxy)phenyl]propanoic acid], the 50% inhibitory concentration (IC50) came out at 0.107 µM in assay [1] and 6.9e-09 M in assay [2].

Consider `COc1nccc(COc2ccccc2CC(Oc2ncnc3sc(-c4ccco4)c(-c4ccc(OCCN5CCN(C(C)C)CC5)c(Cl)c4C)c23)C(=O)O)n1` [Example 672, (2R)-2-{[(5Sa)-5-(3-chloro-2-methyl-4-{2-[4-(propan-2-yl)piperazin-1-yl]ethoxy}phenyl)-6-(furan-2-yl)thieno[2,3-d]pyrimidin-4-yl]oxy}-3-{2-[(2-methoxypyrimidin-4-yl)methoxy]phenyl}propanoic acid], for which the IC50 was 0.019 µM in assay [1] and 4.3e-09 M in assay [2].

Take `Cc1c(OCCN2CCN(C)CC2)ccc(-c2c(-c3ccco3)sc3ncnc(OC(Cc4ccccc4OCC(F)(F)F)C(=O)O)c23)c1C` [Example 673, (2R)-2-[(5Sa)-5-[2,3-dimethyl-4-[2-(4-methylpiperazin-1-yl)ethoxy]phenyl]-6-(2-furyl)thieno[2,3-d]pyrimidin-4-yl]oxy-3-[2-(2,2,2-trifluoroethoxy)phenyl]propanoic acid]: the IC50 in assay [1] came out at 0.576 µM; in assay [2], 1.1e-08 M.

Turning to `CC#Cc1sc2ncnc(OC(Cc3ccccc3OC)C(=O)O)c2c1-c1ccc(OCCN2CCNCC2)c(Cl)c1C` [Example 684, (2R)-2-{[(5Sa)-5-{3-chloro-2-methyl-4-[2-(piperazin-1-yl)ethoxy]phenyl}-6-(prop-1-yn-1-yl)thieno[2,3-d]pyrimidin-4-yl]oxy}-3-(2-methoxyphenyl)propanoic acid], the values for the half-maximal inhibitory concentration (IC50) in assay [1] and in assay [2] were 2.23 µM and 1.9e-08 M, respectively.

As to `CC#Cc1sc2ncnc(OC(Cc3ccccc3OC)C(=O)O)c2c1-c1ccc(OCCN2CCN(C)CC2)c(F)c1C` [Example 687, (2R)-2-{[(5Sa)-5-{3-fluoro-2-methyl-4-[2-(4-methylpiperazin-1-yl)ethoxy]phenyl}-6-(prop-1-yn-1-yl)thieno[2,3-d]pyrimidin-4-yl]oxy}-3-(2-methoxyphenyl)propanoic acid], the IC50 in assay [1] is 3.66 µM; in assay [2], 2.9e-08 M.

Take `COCOc1cc(F)ccc1CC(Oc1ncnc2sc(-c3ccc(F)o3)c(-c3ccc(OCCN4CCN(C)CC4)c(Cl)c3C)c12)C(=O)O` [Example 690, (2R)-2-{[(5Sa)-5-{3-chloro-2-methyl-4-[2-(4-methylpiperazin-1-yl)ethoxy]phenyl}-6-(5-fluorofuran-2-yl)thieno[2,3-d]pyrimidin-4-yl]oxy}-3-[4-fluoro-2-(methoxymethoxy)phenyl]propanoic acid]: the values for the IC50 in assay [1] and in assay [2] were 0.178 µM and 2.3e-08 M, respectively.

As to `Cc1c(-c2c(-c3ccc(F)o3)sc3ncnc(OC(Cc4ccc(F)cc4OCc4cnccn4)C(=O)O)c23)ccc(OCCN2CCN(C)CC2)c1Cl` [Example 691, (2R)-2-{[(5Sa)-5-{3-chloro-2-methyl-4-[2-(4-methylpiperazin-1-yl)ethoxy]phenyl}-6-(5-fluorofuran-2-yl)thieno[2,3-d]pyrimidin-4-yl]oxy}-3-[4-fluoro-2-(pyrazin-2-ylmethoxy)phenyl]propanoic acid], the IC50 stood at 0.037 µM in assay [1] and 9.6e-09 M in assay [2].

For the compound `COc1cc(F)ccc1CC(Oc1ncnc2sc(-c3ccc(F)o3)c(-c3ccc(OCCN4CCN(C)CC4)c(Cl)c3C)c12)C(=O)O` [Example 692, (2R)-2-{[(5Sa)-5-{3-chloro-2-methyl-4-[2-(4-methylpiperazin-1-yl)ethoxy]phenyl}-6-(5-fluorofuran-2-yl)thieno[2,3-d]pyrimidin-4-yl]oxy}-3-(4-fluoro-2-methoxyphenyl)propanoic acid], the IC50 is 0.079 µM in assay [1] and 1e-08 M in assay [2].

Consider `Cc1c(-c2c(-c3ccc(F)nc3)sc3ncnc(OC(Cc4ccccc4OCc4ccnn4CC(F)(F)F)C(=O)O)c23)ccc(OCCN2CCN(C)CC2)c1Cl` [Example 693, (2R)-2-{[(5Sa)-5-{3-chloro-2-methyl-4-[2-(4-methylpiperazin-1-yl)ethoxy]phenyl}-6-(6-fluoropyridin-3-yl)thieno[2,3-d]pyrimidin-4-yl]oxy}-3-(2-{[1-(2,2,2-trifluoroethyl)-1H-pyrazol-5-yl]methoxy}phenyl)propanoic acid], for which the IC50 stood at 0.101 µM in assay [1] and 9.3e-10 M in assay [2].
